# Reference: PubChem BioAssay (NCI)
# Values joined by “and” are separate entries in the source; they are usually repeats but may differ in a detail not shown here. Equal values may be shown once.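 These data come from cells grown in 96-well plates and exposed to compound for 48 hours at five concentrations. The concentration for 50% growth inhibition is given as GI50. TGI marks complete inhibition of growth.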
# What was measured:
# Experiment in all cases: growth of human tumour cells (NCI), 48 h
# [1] = tested on: SNB-75 CNS
# [2] = tested on: SR leukemia
# [3] = tested on: SF-268 CNS
# [4] = tested on: EKVX NSCLC
# [5] = tested on: SK-MEL-5 melanoma
# [6] = tested on: HT29 colon
# [7] = tested on: RXF 393 renal
# [8] = tested on: RPMI-8226 leukemia
# [9] = tested on: SK-MEL-2 melanoma
# [10] = tested on: HL-60(TB) leukemia
SMILES,GI50 [1],TGI [1],GI50 [2],TGI [2],GI50 [3],TGI [3],GI50 [4],TGI [4],GI50 [5],TGI [5],GI50 [6],TGI [6],GI50 [7],TGI [7],GI50 [8],TGI [8],GI50 [9],TGI [9],TGI [10],GI50 [10]
Cc1cn(-c2cc(NC(=O)c3ccc(C)c(Nc4nccc(-c5cccnc5)n4)c3)cc(C(F)(F)F)c2)cn1,8.04 µM and 3.47 µM,> 10 µM and 11.5 µM,3.06 µM and 2.67 µM,> 10 µM and 26.9 µM,5.78 µM and 3.45 µM,> 10 µM and 15.2 µM,6.23 µM and 5.98 µM,> 10 µM and 26.1 µM,1.73 µM,7.01 µM,1.7 µM and 1.94 µM,> 10 µM and 9.13 µM,2.59 µM and 2.01 µM,6.54 µM and 4.12 µM,2.29 µM and 2.25 µM,> 100 µM,2.19 µM and 2.1 µM,> 10 µM and 10.4 µM,–,–
O=C(NC12CC3CC(CC(C3)C1)C2)C(=O)c1c[nH]c2ccccc12,–,–,–,48.7 µM,–,30.4 µM,–,32.2 µM,–,30.4 µM,–,15 µM,–,–,–,55.3 µM,–,32.3 µM,52.8 µM,–
COC(C)(C)C/C=C/C(C)=C/C=C/C(C)=C\C=C\C(C)=C\C=C\C=C(C)\C=C\C=C(C)\C=C\C=C(C)\C=C\CC(C)(C)OC,> 150 µg/mL,> 150 µg/mL,–,–,> 150 µg/mL,> 150 µg/mL,> 150 µg/mL,> 150 µg/mL,> 150 µg/mL,> 150 µg/mL,> 150 µg/mL,> 150 µg/mL,> 150 µg/mL,> 150 µg/mL,> 150 µg/mL,> 150 µg/mL,> 150 µg/mL,> 150 µg/mL,> 150 µg/mL,> 150 µg/mL
C=C1C(=O)O[C@H]2[C@H]1CC/C(Cn1cc(-c3ccccc3C(F)(F)F)nn1)=C\CC[C@@]1(C)O[C@@H]21,2.97 µM,17.5 µM,–,–,2.09 µM,5.25 µM,2.32 µM,7.12 µM,1.72 µM,3.44 µM,1.79 µM,3.75 µM,1.07 µM,2.32 µM,1.87 µM,8.49 µM,2.45 µM,5.78 µM,10.1 µM,2.58 µM
COC(=O)[C@@H](C)C[C@H](Cc1ccccc1)NC(=O)c1csc([C@@H](C[C@H](C(C)C)N(C)C(=O)[C@@H](NC(=O)[C@H]2CCCCN2C)C2CC2)OC(C)=O)n1,0.000383 µM and 0.00165 µM,> 16.5 µM,–,> 16.5 µM,0.000594 µM and 0.00165 µM,> 16.5 µM,0.0046 µM and 0.00165 µM,> 16.5 µM,–,0.0138 µM and 0.00203 µM,0.000264 µM and 0.00165 µM,0.00135 µM and 0.00208 µM,–,–,0.000225 µM and 0.00165 µM,> 16.5 µM,0.000344 µM,–,0.000839 µM and < 0.00165 µM,0.000235 µM and < 0.00165 µM
COc1cc2c(cc1OC)/C(=C\c1ccccc1N)C(=O)OC2,–,24.9 µM,–,–,–,75.4 µM,–,44.2 µM,–,32.6 µM,–,30.4 µM,–,12.9 µM,–,10.3 µM,–,26.4 µM,17.6 µM,–
COc1cccc(NC(=O)/C(Cc2nc3ccccc3nc2C)=N/NC(=O)C[n+]2ccccc2)c1,–,> 100 µM,–,> 100 µM,–,> 100 µM,–,> 100 µM,–,> 100 µM,–,> 100 µM,–,–,–,68.1 µM,–,> 100 µM,> 100 µM,–
Cc1ccc(O)c(NC(=O)c2ccc(CNc3ccnc(C(F)(F)F)c3)cc2)c1,22.5 µM,90.3 µM,5.1 µM,30 µM,10.8 µM,38 µM,4.04 µM,34.9 µM,4.07 µM,14.7 µM,23.1 µM,> 100 µM,25.4 µM,63.1 µM,2.64 µM,11.3 µM,–,–,14.8 µM,1.21 µM
COC(=O)/C=C/c1cc2c(cc1-c1c(C(=O)O)cc(OC)c(OC)c1OC)OCO2,–,> 10 µM,–,> 10 µM,–,> 10 µM,–,–,–,> 10 µM,–,> 10 µM,–,–,–,> 10 µM,–,–,> 10 µM,–
COC(=O)CC[C@H](Cc1ccccc1)NC(=O)c1csc([C@@H](C[C@H](C(C)C)N(C)C(=O)[C@@H](NC(=O)[C@H]2CCCCN2C)C(C)C)OC(C)=O)n1,< 0.0025 µM,> 25 µM,< 0.0025 µM,> 8.5 µM,0.00785 µM,> 25 µM,0.00801 µM,> 25 µM,< 0.0025 µM,0.0984 µM,< 0.0025 µM,> 25 µM,< 0.0025 µM,> 25 µM,< 0.0025 µM,> 25 µM,–,–,–,–
COc1ccc2c(c1)C(=O)c1c-2n(CCCI)c(=O)c2cc([N+](=O)[O-])ccc12,0.198 µM and 0.368 µM,2.37 µM and 15.2 µM,0.005 µM,0.0888 µM and 0.143 µM,0.161 µM and 0.141 µM,44.4 µM and > 100 µM,–,11.8 µM and > 100 µM,0.109 µM and 0.124 µM,0.438 µM and 0.468 µM,0.16 µM and 0.437 µM,–,0.319 µM and 0.789 µM,3.57 µM and 13.8 µM,–,–,8.01 µM and 16.4 µM,47.2 µM and > 100 µM,2.26 µM and 0.822 µM,0.167 µM and 0.0526 µM
O=C1c2ccccc2-c2c1c1ccccc1c(=O)n2CCCn1ccnc1,5.82 µM,93.4 µM,–,–,3.64 µM,> 100 µM,9.09 µM,> 100 µM,–,–,1.22 µM,6.27 µM,6.15 µM,> 100 µM,0.73 µM,6.26 µM,7.78 µM,> 100 µM,2.18 µM,0.2 µM
CC(C)OP(=O)(NC(=S)c1ccccc1)OC(C)C,–,> 100 µM,–,–,–,> 100 µM,–,> 100 µM,–,> 100 µM,–,> 100 µM,–,–,–,–,–,> 100 µM,–,–
N#CC1CCCCCCCCCCC(=O)N(CCCl)C1=O (stereo unspecified),–,> 100 µM,–,–,–,> 100 µM,–,> 100 µM,–,> 100 µM,–,> 100 µM,–,> 100 µM,–,> 100 µM,–,> 100 µM,> 100 µM,–
CN(C)CCCNC(=O)c1cc(NC(=O)c2cc(NC(=O)CCNS(=O)(=O)c3ccc4c(c3)C(=O)c3ccccc3C4=O)cn2C)cn1C,–,–,85.9 µM,> 100 µM,> 100 µM,> 100 µM,> 100 µM,> 100 µM,> 100 µM,> 100 µM,> 100 µM,> 100 µM,> 100 µM,> 100 µM,> 100 µM,> 100 µM,> 100 µM,> 100 µM,> 100 µM,> 100 µM
S=P(N1CC1)(N1CC1)N1CC1,20.4 µM and 186 µM,57.7 µM and 403 µM and 498 µM,–,> 51.4 µM and 441 µM,8.67 µM and 24.8 µM,60.6 µM and 536 µM and 476 µM,–,–,–,–,–,66.7 µM and 500 µM and 617 µM,18.8 µM,39.6 µM and 251 µM and 308 µM,28 µM,92.3 µM and 792 µM and 706 µM,–,–,–,0.942 µM and 1.95 µM
C=CCC1C(=O)CC2(C)CC(=O)C(CC=C)C12C (stereo unspecified),–,> 100 µM,–,> 100 µM,–,> 100 µM,–,> 100 µM,–,> 100 µM,–,> 100 µM,–,> 100 µM,–,> 100 µM,–,–,> 100 µM,–
